The record followed here is ChEMBL document CHEMBL5120845, “Design and synthesis of novel macrolones bridged with linkers from 11,12-positions of macrolides” (Bioorg Med Chem Lett, 2022).

The nature of data set [1]: Stability in rat liver microsomes assessed as unchanged drug level at 1 uM by LC-MS/MS analysis. Type of data set: ADME, Microsome. The following applies: time 60 min, read-out: Stability.
A short description of data set [2]: Stability in rat liver microsomes assessed as unchanged drug level at 1 uM after 60 mins by LC-MS/MS analysis. Type of data set: ADME, Microsome. The following applies: read-out: Stability.
The nature of data set [3]: Half life in human liver microsomes at 1 uM by LC-MS/MS analysis. In kind it is ADME, Microsome.
Data set [4] is described as follows: Intrinsic clearance in human liver microsomes at 1 uM by LC-MS/MS analysis. The conditions noted are these: read-out: CLH. In kind it is ADME, Microsome.
The subject of data set [5] is Streptococcus pneumoniae. The experiment in a line: Antibacterial activity against Streptococcus pneumoniae ATCC 49619 by microbroth dilution method. Type of data set: functional.
For data set [6], the system named is Streptococcus pneumoniae. The experiment in a line: Antibacterial activity against Streptococcus pneumoniae 07P390 by microbroth dilution method. In kind it is functional.
The subject of data set [7] is Streptococcus pneumoniae. The data set is described as follows: Antibacterial activity against Streptococcus pneumoniae PU09 by microbroth dilution method. In kind it is functional.
The test system of the next data set is Streptococcus pyogenes. The data set is described as follows: Antibacterial activity against Streptococcus pyogenes 12-206 by microbroth dilution method. Type of data set: functional.
For data set [8], the system named is Staphylococcus aureus. The data set is described as follows: Antibacterial activity against Staphylococcus aureus 15B196 by microbroth dilution method. Type of data set: functional.
In data set [9] the test system is Staphylococcus aureus. The experiment in a line: Antibacterial activity against Staphylococcus aureus PU32 by microbroth dilution method. In kind it is functional.
The subject of a further data set is Haemophilus influenzae. The data set is described as follows: Antibacterial activity against Haemophilus influenzae ATCC 49247 by microbroth dilution method. In kind it is functional.
Data set [10] concerns Mycoplasmoides pneumoniae. The experiment in a line: Antibacterial activity against erythromycin-susceptible Mycoplasma pneumoniae ATCC 29342 by microbroth dilution method. In kind it is functional.
Data set [11] deals with Mycoplasmoides pneumoniae. The data set is described as follows: Antibacterial activity against erythromycin-resistant Mycoplasma pneumoniae A2058G by microbroth dilution method. Type of data set: functional.
Data set [12] deals with Mycoplasmoides pneumoniae. The experiment in a line: Antibacterial activity against erythromycin-resistant Mycoplasma pneumoniae A2059G by microbroth dilution method. In kind it is functional.
Data set [13] concerns Mycoplasmoides pneumoniae. The data set is described as follows: Antibacterial activity against erythromycin-resistant Mycoplasma pneumoniae A2058T by microbroth dilution method. Type of data set: functional.

≈ marks a conversion by molar mass, not a printed value.

Consider `CCOc1ccc2ccc(=O)oc2c1`, for which the remaining at 1 h, 1 µM in data set [1] turned out to be 0.695%; in [2], 8.69%. In addition, the half-life at 1 µM in data set [3] was determined as 17.8 min. For the same compound, the CLint scaled at 1 µM in [4] turned out to be 70.2 mL/min/kg.

Turning to `CC[C@H]1OC(=O)[C@H](C)C(=O)[C@H](C)[C@@H](O[C@@H]2O[C@H](C)C[C@H](N(C)C)[C@H]2O)[C@](C)(OC)C[C@@H](C)C(=O)[C@H](C)[C@H]2N(CCCCc3ccc4c(=O)c(C(=O)O)cn(C5CC5)c4c3)C(=O)O[C@]12C`, the MIC against Streptococcus pneumoniae [5] was at most 0.008 µg/mL; against Streptococcus pneumoniae [6], 2 µg/mL (≈ 2.23 µM); in the data set on Streptococcus pneumoniae [7], 0.5 µg/mL (≈ 0.558 µM); against Streptococcus pyogenes it was 0.25 µg/mL (≈ 0.279 µM); against Staphylococcus aureus [8], 8 µg/mL (≈ 8.93 µM); against Staphylococcus aureus [9], 1 µg/mL (≈ 1.12 µM). Moreover, the MIC against Haemophilus influenzae is 4 µg/mL (≈ 4.46 µM); in [10], 0.008 µg/mL (≈ 0.00893 µM); in [11] it was 32 µg/mL (≈ 35.7 µM); in [12], 32 µg/mL (≈ 35.7 µM); in [13] it was 16 µg/mL (≈ 17.9 µM). For the same compound, the remaining at 1 h, 1 µM stood at 100% in [1] and 35.1% in data set [2]. In addition, in data set [3], the half-life at 1 µM worked out at 39.1 min. Moreover, the CLint scaled at 1 µM in [4] was 31.9 mL/min/kg.

With `CC[C@H]1OC(=O)[C@H](C)C(=O)[C@H](C)[C@@H](O[C@@H]2O[C@H](C)C[C@H](N(C)C)[C@H]2O)[C@](C)(OC)C[C@@H](C)C(=O)[C@H](C)[C@H]2N(CCCCN3CCN(c4cc5c(cc4F)c(=O)c(C(=O)O)cn5C4CC4)CC3)C(=O)O[C@]12C`, the MIC is at most 0.008 µg/mL in the data set with Streptococcus pneumoniae [5]; 2 µg/mL (≈ 2 µM) in the data set with Streptococcus pneumoniae [6]; 0.5 µg/mL (≈ 0.501 µM) against Streptococcus pneumoniae [7]; 0.5 µg/mL (≈ 0.501 µM) in the data set on Streptococcus pyogenes; 256 µg/mL (≈ 256 µM) with Staphylococcus aureus [8]; 2 µg/mL (≈ 2 µM) in the data set with Staphylococcus aureus [9]. This compound gave an MIC with Haemophilus influenzae of 8 µg/mL (≈ 8.01 µM).

On to `CC[C@H]1OC(=O)[C@H](C)C(=O)[C@H](C)[C@@H](O[C@@H]2O[C@H](C)C[C@H](N(C)C)[C@H]2O)[C@](C)(OC)C[C@@H](C)C(=O)[C@H](C)[C@H]2N(CCN3CCN(c4c(F)cc5c(=O)c(C(=O)O)cn(C6CC6)c5c4OC)CC3)C(=O)O[C@]12C`, for which the MIC in the data set on Streptococcus pneumoniae [5] came out at 0.25 µg/mL (≈ 0.25 µM); with Streptococcus pneumoniae [6], 2 µg/mL (≈ 2 µM); against Streptococcus pneumoniae [7], 2 µg/mL (≈ 2 µM); against Streptococcus pyogenes, 8 µg/mL (≈ 8 µM); against Staphylococcus aureus [8] it was 32 µg/mL (≈ 32 µM); in the data set on Staphylococcus aureus [9], 8 µg/mL (≈ 8 µM). For the same compound, the MIC against Haemophilus influenzae turned out to be 32 µg/mL (≈ 32 µM).

Turning to `CC[C@H]1OC(=O)[C@H](C)C(=O)[C@H](C)[C@@H](O[C@@H]2O[C@H](C)C[C@H](N(C)C)[C@H]2O)[C@](C)(OC)C[C@@H](C)C(=O)[C@H](C)[C@H]2N(CCCN3CCN(c4cc5c(cc4F)c(=O)c(C(N)=O)cn5C4CC4)CC3)C(=O)O[C@]12C`, the MIC with Streptococcus pneumoniae [5] worked out at 0.12 µg/mL (≈ 0.122 µM); against Streptococcus pneumoniae [6] it was 256 µg/mL (≈ 260 µM); in the data set with Streptococcus pneumoniae [7] it was 2 µg/mL (≈ 2.03 µM); in the data set with Streptococcus pyogenes, 8 µg/mL (≈ 8.14 µM); against Staphylococcus aureus [8] it was 512 µg/mL (≈ 521 µM); in the data set on Staphylococcus aureus [9] it was 2 µg/mL (≈ 2.03 µM). Further, the MIC with Haemophilus influenzae came out at 128 µg/mL (≈ 130 µM).

In the case of `CC[C@H]1OC(=O)[C@H](C)C(=O)[C@H](C)[C@@H](O[C@@H]2O[C@H](C)C[C@H](N(C)C)[C@H]2O)[C@](C)(OC)C[C@@H](C)C(=O)[C@H](C)[C@H]2N(CCCN3CCN(c4cc5c(cc4F)c(=O)c(C(=O)O)cn5C4CC4)CC3)C(=O)O[C@]12C`, the MIC is 0.016 µg/mL (≈ 0.0163 µM) in the data set on Streptococcus pneumoniae [5]; 0.12 µg/mL (≈ 0.122 µM) in the data set on Streptococcus pneumoniae [6]; 1 µg/mL (≈ 1.02 µM) against Streptococcus pneumoniae [7]; 1 µg/mL (≈ 1.02 µM) against Streptococcus pyogenes; 64 µg/mL (≈ 65 µM) against Staphylococcus aureus [8]; 1 µg/mL (≈ 1.02 µM) in the data set with Staphylococcus aureus [9]. Further, the MIC in the data set on Haemophilus influenzae was determined as 8 µg/mL (≈ 8.13 µM); in data set [10], 0.008 µg/mL (≈ 0.00813 µM); in data set [11], 8 µg/mL (≈ 8.13 µM); in data set [12] it was 8 µg/mL (≈ 8.13 µM); in data set [13], 8 µg/mL (≈ 8.13 µM). Besides, the results for the remaining at 1 h, 1 µM in [1] and in data set [2] were 95.1% and 65%, respectively. In addition, in data set [3], the half-life at 1 µM is 110 min. In addition, the CLint scaled at 1 µM in data set [4] was 11.3 mL/min/kg.

Turning to `O=C(O)c1cn(C2CC2)c2cc(N3CCNCC3)c(F)cc2c1=O` [CIPROFLOXACIN], the MIC stood at 1 µg/mL (≈ 3.02 µM) in the data set with Streptococcus pneumoniae [5]; 2 µg/mL (≈ 6.04 µM) in the data set on Streptococcus pneumoniae [6]; 2 µg/mL (≈ 6.04 µM) against Streptococcus pneumoniae [7]; 0.25 µg/mL (≈ 0.754 µM) against Streptococcus pyogenes; 1 µg/mL (≈ 3.02 µM) against Staphylococcus aureus [8]; 32 µg/mL (≈ 96.6 µM) in the data set with Staphylococcus aureus [9]. Besides, the MIC against Haemophilus influenzae was 0.03 µg/mL (≈ 0.0905 µM).

`CC[C@H]1OC(=O)[C@H](C)[C@@H](O[C@H]2C[C@@](C)(OC)[C@@H](O)[C@H](C)O2)[C@H](C)[C@@H](O[C@@H]2O[C@H](C)C[C@H](N(C)C)[C@H]2O)[C@](C)(OC)C[C@@H](C)C(=O)[C@H](C)[C@@H](O)[C@]1(C)O` [CLARITHROMYCIN]: the MIC with Streptococcus pneumoniae [5] is 0.03 µg/mL (≈ 0.0401 µM); in the data set with Streptococcus pneumoniae [6], 512 µg/mL (≈ 685 µM); with Streptococcus pneumoniae [7] it was 8 µg/mL (≈ 10.7 µM); in the data set on Streptococcus pyogenes, 512 µg/mL (≈ 685 µM); in the data set with Staphylococcus aureus [8] it was 512 µg/mL (≈ 685 µM); against Staphylococcus aureus [9] it was 64 µg/mL (≈ 85.6 µM). This compound also gave an MIC with Haemophilus influenzae of 16 µg/mL (≈ 21.4 µM).

Take `CC[C@H]1OC(=O)[C@H](C)C(=O)[C@H](C)[C@@H](O[C@@H]2O[C@H](C)C[C@H](N(C)C)[C@H]2O)[C@](C)(OC)C[C@@H](C)C(=O)[C@H](C)[C@H]2N(CCCCn3cnc(-c4cccnc4)c3)C(=O)O[C@]12C` [TELITHROMYCIN]: the MIC against Streptococcus pneumoniae [5] was 0.008 µg/mL (≈ 0.00985 µM); against Streptococcus pneumoniae [6] it was 0.06 µg/mL (≈ 0.0739 µM); with Streptococcus pneumoniae [7] it was 1 µg/mL (≈ 1.23 µM); against Streptococcus pyogenes, 0.12 µg/mL (≈ 0.148 µM); in the data set on Staphylococcus aureus [8] it was 64 µg/mL (≈ 78.8 µM); in the data set on Staphylococcus aureus [9], 0.5 µg/mL (≈ 0.616 µM). For the same compound, the MIC against Haemophilus influenzae is 4 µg/mL (≈ 4.93 µM); in data set [10] it was 0.008 µg/mL (≈ 0.00985 µM); in data set [11], 256 µg/mL (≈ 315 µM); in data set [12], 256 µg/mL (≈ 315 µM); in data set [13], 256 µg/mL (≈ 315 µM). Moreover, the remaining at 1 h, 1 µM in [1] amounted to 93.2%; in data set [2], 26.3%. The compound further showed a half-life at 1 µM in [3] of 32.4 min. Moreover, in [4], the CLint scaled at 1 µM is 38.4 mL/min/kg.
